Source: patent US6727276B2, “Epothilone derivatives for the treatment of refractory tumors” (Bristol-Myers Squibb Company, priority 2001, dated 2004)
Read-outs that look alike come from different tables or passages of the source.

Tests used:
[1] = system: HCT116/VM46 human colon carcinoma xenograft; assay: In vivo antitumor testing, HCT116/VM46 xenograft
[2] = system: Pat-26 human pancreatic carcinoma; assay: In vivo antitumor testing, Pat-26 xenograft
Pat-21 breast carcinoma = system: Pat-21 breast carcinoma; design: species or system nude mice; settings: mouse, in vivo
HCT116/VM46 cells = type: cell-based, human
[3] = system: Pat-7 human ovarian carcinoma
[4] = system: A2780Tax ovarian carcinoma xenograft (mutated tubulin); design: species or system nude mice; settings: mouse, in vivo
[5] = system: tubulin isolated from calf brain; type: biochemical
[6] = In vivo antitumor testing, HCT116/VM46 xenograft; settings: Balb/c nu/nu, mouse, in vivo, iv
in vivo = settings: Balb/c nu/nu, mouse
[7] = In vivo antitumor testing, Pat-26 xenograft; settings: Balb/c nu/nu, mouse, in vivo, iv
[8] = system: panel of tumor cell lines; assay: Cytotoxicity assay (tetrazolium-based colorimetric), panel of tumor cell lines; settings: 72 h, read-out: IC50 (median cytotoxic concentration)
[9] = paclitaxel, results obtained in separate studies

For `CC(=O)O[C@H]1C(=O)[C@@]2(C)[C@H]([C@H](OC(=O)c3ccccc3)[C@]3(O)C[C@H](OC(=O)[C@H](O)[C@@H](NC(=O)c4ccccc4)c4ccccc4)C(C)=C1C3(C)C)[C@]1(OC(C)=O)CO[C@@H]1C[C@@H]2O` [Paclitaxel, paclitaxel, reference compound], the “LCK (gross log cell kill)” value [1, 9] was 0.55, the “LCK (gross log cell kill)” value [2, 9] was 0.4 and the “LCK (gross log cell kill)” value (Pat-21 breast carcinoma) was 0.3. The “ratio of concentration (R/S or resistance ratio) to inhibit cell growth by 50%” value (HCT116/VM46 cells) was 155 fold, the “LCK (gross log cell kill)” value [3, 9] was 0.8 and the “LCK (gross log cell kill)” value [4] was 0.8.
For `C/C(=C\c1csc(C)n1)[C@@H]1C[C@@H]2O[C@@H]2CCC[C@H](C)[C@H](O)[C@@H](C)C(=O)C(C)(C)[C@@H](O)CC(=O)O1` [BMS-212188, Epothilone A], the “Ratio of Polymerization Potency of Analog/Paclitaxel” value (from here on “Ratio … of Analog/Paclitaxel”) [5] was 0.4 and the “Polymerization Potency, EC0.01” value ([5]; concentration inducing initial slope of 0.01 OD/minute) was 2000 nM.
For Epothilone B [BMS-205535], the “Polymerization Potency, EC0.01” value [5] was 1800 nM and the “Ratio … of Analog/Paclitaxel” value [5] was 0.3.
For `C/C(=C\c1csc(CN)n1)[C@@H]1C[C@@H]2O[C@]2(C)CCC[C@H](C)[C@H](O)[C@@H](C)C(=O)C(C)(C)[C@@H](O)CC(=O)O1` (relative stereo) [BMS-310705, [1S-[1R*,3R*(E),7R*,10S*,11R*,12R*,16S*]]-7,11-dihydroxy-8,8,10,12,16-pentamethyl-3-[1-methyl-2-(2-aminomethyl-4-thiazolyl)ethenyl]-4,17-dioxabicyclo[14.1.0]heptadecane-5,9-dione], the “LCK (gross log cell kill)” value ([1]; BMS-310705, IV, q4dx3 at OD 7.5 mg/kg, Expt. 40) was 1.5, the MTD [6] was 7.5 mg/kg and the “Polymerization Potency, EC0.01” value [5] was 7400 nM. The “Ratio … of Analog/Paclitaxel” value [5] was 1.7, the “tubulin polymerization potency relative to paclitaxel (fold more potent)” value [5] was “about 2.5 fold” and the MTD (in vivo; iv) was 8 mg/kg. The MTD (in vivo; po, pH 8) was 90 mg/kg, the “LCK (gross log cell kill)” value ([2]; BMS-310705, IV, q4dx3 at OD 10 mg/kg, Expt. 968) was 1.2 and the MTD [7] was 10 mg/kg. The IC50 [8] was 0.9 to 3.5 nM, the “LCK (gross log cell kill)” value (Pat-21 breast carcinoma) was over 4.1 and the “gross log cell kill (LCK)” value ([3]; BMS-310705 (PO), PO, q4dx3 at OD/MTD 90 mg/kg, Expt. 18) was 2.4. For the same molecule, the “LCK (gross log cell kill)” value ([3]; BMS-310705, IV, q4dx3 at OD 8 mg/kg, Expt. 14) was 2.4, the “antitumor activity given orally compared with IV administration (in words)” value ([3]; PO vs IV) was “equivalent to that produced by IV drug administration” and the “oral antitumor activity (in words)” value ([3]; PO, every 4 days x 3 schedule, FIG. 4) was “highly active orally”. The “water solubility (in words)” value (Water solubility) was “highly water-soluble”.
